Laboratory results from publication PMC4804155 (Chembiochem : a European journal of chemical biology, 2015).
Where two headings read alike, the source gives them in different places.

Assays:
[1] = target: T1, MOF (male absent on the first, MYST1, HAT8) (Homo sapiens, UniProt Q9H7Z6, I317A); assay: CPM fluorogenic enzyme kinetics, Km; type: biochemical
T1 sequence (Q9H7Z6 174-447 I317A limits assumed): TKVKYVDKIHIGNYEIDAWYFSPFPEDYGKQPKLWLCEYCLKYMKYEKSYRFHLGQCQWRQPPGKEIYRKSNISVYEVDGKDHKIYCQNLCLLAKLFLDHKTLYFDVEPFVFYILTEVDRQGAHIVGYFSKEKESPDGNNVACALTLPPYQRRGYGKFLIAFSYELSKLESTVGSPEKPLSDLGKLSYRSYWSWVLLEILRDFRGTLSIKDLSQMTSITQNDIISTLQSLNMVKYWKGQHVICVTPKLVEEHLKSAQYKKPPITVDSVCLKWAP

[2] = target: MOF (male absent on the first, MYST1, HAT8) (Homo sapiens, UniProt Q9H7Z6)
[3] = target: T1, MOF (male absent on the first, MYST1, HAT8)

Chain of MOF (male absent on the first, MYST1, HAT8) (Homo sapiens, UniProt Q9H7Z6) (Q9H7Z6 2-458): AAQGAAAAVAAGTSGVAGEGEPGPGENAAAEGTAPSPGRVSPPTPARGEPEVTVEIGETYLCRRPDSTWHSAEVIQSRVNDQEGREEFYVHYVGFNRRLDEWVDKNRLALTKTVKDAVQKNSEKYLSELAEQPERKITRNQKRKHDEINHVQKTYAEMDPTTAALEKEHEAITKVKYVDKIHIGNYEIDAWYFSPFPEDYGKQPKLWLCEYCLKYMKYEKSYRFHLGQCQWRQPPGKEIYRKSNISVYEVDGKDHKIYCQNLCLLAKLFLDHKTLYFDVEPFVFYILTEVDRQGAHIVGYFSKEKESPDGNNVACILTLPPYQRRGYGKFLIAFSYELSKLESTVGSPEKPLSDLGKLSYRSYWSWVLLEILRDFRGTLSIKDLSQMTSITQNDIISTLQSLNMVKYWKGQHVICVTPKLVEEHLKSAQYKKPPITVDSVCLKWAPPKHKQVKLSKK

Row | Km [2] | Km [3] | SMILES | Km [1]
1 | – | – | CC(C)(COP(=O)(O)OP(=O)(O)OC[C@H]1O[C@@H](n2cnc3c(N)ncnc32)[C@H](O)[C@@H]1OP(=O)(O)O)[C@@H](O)C(=O)NCCC(=O)NCCSC(=O)CCN=[N+]=[N-] [3-azidopropanoyl CoA] | 2.7 ± 0.2 µM
2 | 1.3 ± 0.1 µM | 3.5 ± 0.2 µM | CC(=O)SCCNC(=O)CCNC(=O)[C@H](O)C(C)(C)COP(=O)(O)OP(=O)(O)OC[C@H]1O[C@@H](n2cnc3c(N)ncnc32)[C@H](O)[C@@H]1OP(=O)(O)O [acetyl-CoA] | –
